Series [1] concerns AP1. Put plainly: AP1 CALUX assay (cell cycle control). The following applies: cell signaling pathway assay, 24 h exposure. Also noted: key: –: no effect observed up to the highest test concentration. It counts as cell-based, human. From the text: Six of the CALUX assays (TCF through p53) detect activation of several cellular signaling pathways, which are indicative of general stress and acute toxicity, but also a range of more specific types of toxicity, including reproductive toxicity. […]
DCM ≥99.5%, chloroform ≥99.5%, DMSO ≥99.0% were purchased from VWR. […]
(§1) Polyarylethersulfone of 55,000 Da were obtained from INGE.BASF, Germany. The CALUX cell lines have been described previously.[1] They are based on human U2-OS cells (ATCC, HTB-96) stably transfected with an expression construct for the full-length human receptor under investigation, and a reporter construct consisting of multimerized responsive elements for the cognate receptor coupled to a minimal promoter element (TATA) and a luciferase gene. Cells were maintained as described previously,[2] using cell culture media and supplements from Fisher Scientific as described in the experimental procedures section. […]
(§2) In vitro reporter gene assays
(§3) The automated CALUX assays were carried out similarly as described earlier,[12] with some adaptations. In brief, the assay was performed in CO2 independent medium (Fisher Scientific, […]
(§4) supplement (Fisher Scientific, 11574466), 10 U/mL penicillin and 10 µg/mL streptomycin. A cell suspension in assay medium was made of 1 × 10^5cells/mL, and white 384-wells plates were seeded with 30 µl cell suspension/well. After 24 h, exposure medium was prepared. A dilution series in 0.5log unit increments of each test compound (in DMSO) was added to a 96-wells plate containing assay medium (2% v/v). Of this exposure mixture, 30 µl was added to the assay plates containing the CALUX cells, resulting in a final DMSO concentration of 1%. Additionally, DMSO blanks and a full dose response curve of the relevant reference compound were included on each plate. All samples were tested in triplicate. The preparation of the compound dilution series as well as the exposure of the cells were performed on a Hamilton StarLET liquid handling robot coupled to a Cytomat incubator.
Directly after exposure, plates were sealed with non-breathing plate seals (Plate sealer, easy seal transparent; Greiner-Bio-One, 676001). After 24 h the exposure medium was removed using an EL406 washer-dispenser (BioTek) and 10 µl/well triton lysisbuffer was added by the EL406.
(§5) Subsequently, the luciferase signal was measured in a luminometer (InfinitePro coupled to a Connect Stacker, both TECAN). In order to be able to detect receptor antagonism, several assays were also performed in antagonistic mode. The assay procedure was as described above, with the only exception that the EC50 concentration of the reference agonist was present during the exposure.
The luminometer data was analysed as follows; the average of the triplicate wells was determined, and the average blank (DMSO) value was subtracted. For receptor-based assays the maximum response elicited by the reference compound was set to 100% (full receptor- or pathway activation), and the other values were scaled accordingly. GraphPad Prism was used to fit a sigmoidal curve through the data (four parameters, variable slope). […] For antagonist- and cytotoxicity experiments, PC20 values were determined instead, which was defined as the concentration where the test compound causes a 20% decrease in the basal signal, which was […]
curve, the signal induction above background (DMSO) was determined, and the concentration where the compound elicited a 1.5-fold increase above background was used as LEC.

Series [2] concerns the target T1, PPARδ (Homo sapiens, UniProt Q03181).
T1 construct: expression construct for the full-length human receptor under investigation; expressed in transfected cells; host or cells: human U2-OS cells (ATCC HTB-96), stably transfected
T1 sequence (Q03181 1-441): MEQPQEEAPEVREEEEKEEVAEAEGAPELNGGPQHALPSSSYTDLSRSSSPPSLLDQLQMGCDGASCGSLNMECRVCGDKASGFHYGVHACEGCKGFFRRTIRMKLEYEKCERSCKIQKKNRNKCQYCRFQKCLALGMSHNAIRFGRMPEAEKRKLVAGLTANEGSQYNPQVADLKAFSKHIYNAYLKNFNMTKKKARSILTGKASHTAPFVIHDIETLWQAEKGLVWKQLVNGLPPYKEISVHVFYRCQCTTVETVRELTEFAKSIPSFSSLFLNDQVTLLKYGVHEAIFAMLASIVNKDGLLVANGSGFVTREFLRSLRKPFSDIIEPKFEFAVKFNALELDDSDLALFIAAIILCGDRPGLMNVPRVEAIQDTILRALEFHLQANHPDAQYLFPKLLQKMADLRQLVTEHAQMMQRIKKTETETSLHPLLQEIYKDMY
Kind of series: PPARδ CALUX reporter gene assay. It counts as cell-based. Also noted: key: –: no effect observed up to the highest test concentration. As to conditions: PC10, 24 h exposure.
Description: nitroaniline ≥98.0% was purchased from Alfa Aeser. Cyrene was supplied by Circa group. N-butylpyrrolidinone was supplied by Eastman chemicals. […]
as §1, §2, §3
as §4, with “with” for “supplement (Fisher Scientific, 11574466), 10 U/mL penicillin and 10 µg/mL streptomycin. A cell suspension in assay medium was made of 1 × 10^5cells/mL, and white 384-wells plates were seeded with”
Directly after exposure, plates were sealed with non-breathing plate seals (Plate sealer, easy seal […]
After 24 h the exposure medium was removed using an EL406 washer-dispenser (BioTek) and 10 µl/well triton lysisbuffer was added by the EL406.
as §5
The luminometer data was analysed as follows; the average of the triplicate wells was determined, […]
Background: A reporter such as luciferase makes a cellular process visible.

On the set-up of series [3]: key to C (carcinogenicity) / M (mutagenicity) / R (reproduction toxicity) / S (skin sensitization): −: absence of property; +: presence of property; ?: no prediction possible. The following applies: cited from earlier work.
On the set-up of series [4]: method as in PubChem. The following applies: data obtained from PubChem; ref PubChem; cited from earlier work.
The mark [5] stands for this setting: exp: conclusion based on reliable experimental data.

Marks after values point to notes of the source that are not given here.

For `CCCCN(CCCC)C(=O)CCC(=O)N(CCCC)CCCC` [TBSA, N,N,N′,N′‐tetrabutylsuccindiamide], the “LEC AP1” value in series [1] was “–”. Moreover, the “LEC PPARδ” value in series [2] is given as “–”.
Take `CCCCN1CCCC1=O` [NBP, N‐Butylpyrrolidinone, reference compound]: in series [1], the “LEC AP1” value was “–”. The “LEC PPARδ” value in series [2] is given as −2.3 Log M. Also, in series [3] (setting [5]), the “M (mutagenicity)” value was “− (exp)”, the “R (reproduction toxicity)” value was “− (exp)” and the “S (skin sensitization)” value is given as “− (exp)”. Moreover, in series [3] (experimental data), the “M (mutagenicity), in words” value is “negative”; the “R (reproduction toxicity), in words” value is “negative”; the “S (skin sensitization), in words” value is “negative”.
Consider `CN1CCCC1=O` [NMP, N‐methyl‐2‐pyrrolidone, reference compound], for which the “LEC AP1” value in series [1] is on record as −1.5 Log M. In addition, in series [4], the “Log P (o/w)” value is −0.38^[d]. In addition, in series [3] (setting [5]), the “C (carcinogenicity)” value is “− (exp)”, the “M (mutagenicity)” value was “− (exp)”, the “R (reproduction toxicity)” value is “+ (exp)” and the “S (skin sensitization)” value is reported as “− (exp)”. Moreover, in series [3] (experimental data), the “C (carcinogenicity), in words” value is given as “negative”; the “M (mutagenicity), in words” value is “negative”; the “R (reproduction toxicity), in words” value is on record as “positive”; the “S (skin sensitization), in words” value was “negative”.
Turning to `CCCCN(CC)C(=O)CCC(=O)N(CC)CCCC` [EBSA, N,N′‐diethyl‐N,N′‐dibutylsuccindiamide], the “LEC AP1” value in series [1] is given as “–”. Besides, the “LEC PPARδ” value in series [2] is listed as “–”.
Turning to `CCCCN(C)C(=O)CCC(=O)N(C)CCCC` [MBSA, N,N′‐dimethyl‐N,N′‐dibutylsuccindiamide], in series [1], the “LEC AP1” value is on record as “–”. Moreover, the “LEC PPARδ” value in series [2] was “–”.

These data come from PMC7318222, “A Family of Water‐Immiscible, Dipolar Aprotic, Diamide Solvents from Succinic Acid” (Chemsuschem, 2020).
